± gives the standard deviation of the averaged measurements.
test system: U-2 OS; experiment: cell painting activity score (Mahalanobis distance from DMSO wells); higher = stronger morphological phenotype; settings: 0.625 µM; 24 h
Summary of the method: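 In this cell painting assay, roughly 1,500 U-2 OS cells per well in 384-well plates were pin-tool treated at 37 °C for 24 h, typically at six 2-fold steps from 20 μM down to 625 nM. Cells were stained with MitoTracker, concanavalin A, phalloidin, wheat germ agglutinin, Hoechst and SYTO 14, imaged on an Opera Phenix, and analysed in CellProfiler with normalization to same-plate DMSO cells. Reported values are means of four replicate plates, with the activity score defined as the Mahalanobis distance from DMSO wells and cell count defined relative to DMSO wells.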

SMILES	cell painting activity score
O=C(Nc1nc(-c2ccccc2)ns1)c1cccs1	4.56
Cc1cc2c(C(C)C)c(O)c(O)c(C=O)c2c(O)c1-c1c(C)cc2c(C(C)C)c(O)c(O)c(C=O)c2c1O	3.83
C=CC(=O)Nc1cc(Nc2nccc(-c3cn(C)c4ccccc34)n2)c(OC)cc1N(C)CCN(C)C	10.5
O=S1(=O)C=Cc2ccccc21	7.06
CC(=O)c1c(O)c(C)c(O)c(Cc2c(O)c3c(c(C(=O)C=Cc4ccccc4)c2O)OC(C)(C)C=C3)c1O	4.78
CC1(C)CC[C@]2(C(=O)n3ccnc3)CC[C@]3(C)[C@H](C(=O)C=C4[C@@]5(C)C=C(C#N)C(=O)C(C)(C)[C@@H]5CC[C@]43C)[C@@H]2C1	17.6
COC[C@H]1OC(=O)c2coc3c2[C@@]1(C)C1=C(C3=O)[C@@H]2CCC(=O)[C@@]2(C)C[C@H]1OC(C)=O	7.82 ± 1.2
c1ccc(Nc2nc(-c3ccccc3)ns2)cc1	4.12
C=CC(=O)Nc1cccc(Oc2nc(Nc3ccc(N4CCN(C)CC4)cc3OC)ncc2Cl)c1	5.47
Cn1nnnc1SC1=CS(=O)(=O)c2ccccc21	5.5
CCC(=O)N1CCN(c2ccc(-n3c(=O)ccc4cnc5ccc(-c6cnc7ccccc7c6)cc5c43)cc2C(F)(F)F)CC1	12.8
O=C1CC(Nc2ccccc2)C(=O)N1Cc1ccccc1 (stereo not drawn)	3.91
C[C@@H]1C[C@H]2O[C@@H]2/C=C\C=C\C(=O)Cc2c(Cl)c(O)cc(O)c2C(=O)O1	14.6 ± 1.8
C=CC(=O)Nc1cc2c(Nc3ccc(F)c(Cl)c3)ncnc2cc1OCCCN1CCOCC1	15.6
O=C1/C(=C/c2ccc(O)c(Br)c2)CCC/C1=C\c1ccc(O)c(Br)c1	4.8
CNC(=O)Nc1ccc2c(c1)CC[C@@]21OC(=O)N(CC(=O)N(Cc2ccc(F)cc2)[C@@H](C)C(F)(F)F)C1=O	8.32
O=C(O[C@@H]1Cc2c(O)cc(O)cc2O[C@@H]1c1cc(O)c(O)c(O)c1)c1cc(O)c(O)c(O)c1	3.76
O=S1(=O)C=C(Sc2nn(-c3ccccc3)c(=S)s2)c2ccccc21	11.4
C=CC(=O)Nc1ccc(CN2C(=O)N(c3cc(OC)cc(OC)c3)Cc3cnc(Nc4ccc(N5CCN(C)CC5)cc4)nc32)cc1	6.58
CCCCCCCCCCCCCCCc1cccc(O)c1C(=O)O	3.17
Cl.Cl.O=C(O)Cn1nnc(-c2ccc(CN(CCCCOc3ccc(CN4CCCC4)cc3)CCc3ccccc3)cc2)n1	4.83
COc1cc2ncnc(Nc3ccc(F)c(Cl)c3)c2cc1NC(=O)/C=C/CN1CCCCC1	10.6
Cc1cc(-c2ccccc2)cc(C(=O)NNS(=O)(=O)c2ccccc2)c1F	6.33
Cn1c(=O)n(-c2ccc(C(C)(C)C#N)cc2)c2c3cc(-c4cnc5ccccc5c4)ccc3ncc21	11.8
CCCCCC[C@H]1C(=O)O[C@H](C)[C@H](NC(=O)c2cccc(NC=O)c2O)C(=O)O[C@@H](C)[C@@H]1OC(=O)CC(C)C	12.7
COC(=O)[C@]1(C)CC[C@]2(C)CC[C@]3(C)C4=CC=C5C(=CC(=O)C(O)=C5C)[C@]4(C)CC[C@@]3(C)[C@@H]2C1	24.2

same assay, conditions: 1.25 µM; 24 h

SMILES	cell painting activity score
O=C(Nc1nc(-c2ccccc2)ns1)c1cccs1	4.47
Cc1cc2c(C(C)C)c(O)c(O)c(C=O)c2c(O)c1-c1c(C)cc2c(C(C)C)c(O)c(O)c(C=O)c2c1O	4.24
C=CC(=O)Nc1cc(Nc2nccc(-c3cn(C)c4ccccc34)n2)c(OC)cc1N(C)CCN(C)C	8.95
O=S1(=O)C=Cc2ccccc21	8.41
CC(=O)c1c(O)c(C)c(O)c(Cc2c(O)c3c(c(C(=O)C=Cc4ccccc4)c2O)OC(C)(C)C=C3)c1O	3.41
CC1(C)CC[C@]2(C(=O)n3ccnc3)CC[C@]3(C)[C@H](C(=O)C=C4[C@@]5(C)C=C(C#N)C(=O)C(C)(C)[C@@H]5CC[C@]43C)[C@@H]2C1	23.5
COC[C@H]1OC(=O)c2coc3c2[C@@]1(C)C1=C(C3=O)[C@@H]2CCC(=O)[C@@]2(C)C[C@H]1OC(C)=O	8.77 ± 1.2
c1ccc(Nc2nc(-c3ccccc3)ns2)cc1	4.49
C=CC(=O)Nc1cccc(Oc2nc(Nc3ccc(N4CCN(C)CC4)cc3OC)ncc2Cl)c1	8.25
Cn1nnnc1SC1=CS(=O)(=O)c2ccccc21	8.76
CCC(=O)N1CCN(c2ccc(-n3c(=O)ccc4cnc5ccc(-c6cnc7ccccc7c6)cc5c43)cc2C(F)(F)F)CC1	12.6
O=C1CC(Nc2ccccc2)C(=O)N1Cc1ccccc1 (stereo not drawn)	3.72
C[C@@H]1C[C@H]2O[C@@H]2/C=C\C=C\C(=O)Cc2c(Cl)c(O)cc(O)c2C(=O)O1	14.1 ± 1.8
C=CC(=O)Nc1cc2c(Nc3ccc(F)c(Cl)c3)ncnc2cc1OCCCN1CCOCC1	19.4
O=C1/C(=C/c2ccc(O)c(Br)c2)CCC/C1=C\c1ccc(O)c(Br)c1	5.76
CNC(=O)Nc1ccc2c(c1)CC[C@@]21OC(=O)N(CC(=O)N(Cc2ccc(F)cc2)[C@@H](C)C(F)(F)F)C1=O	8.2
O=C(O[C@@H]1Cc2c(O)cc(O)cc2O[C@@H]1c1cc(O)c(O)c(O)c1)c1cc(O)c(O)c(O)c1	4.88
